The values that follow come from patent publication US8158792B2, “Spiropiperidines for use as tryptase inhibitors” (Janssen Pharmaceutica N.V., priority 2007, dated 2012).

For the assay, the target named is human lung tryptase. Description: β-Tryptase In-Vitro Enzyme Assay. The class given is biochemical. Conditions: human lung tryptase 1 nM, substrate H-D-HHT-Ala-Arg-pNa 500 μM, pH 7.4, room temperature. The protocol: The β-tryptase assay was conducted with human lung tryptase (Cortex Biochem #CP3033) in an aqueous buffer (10 mM Tris, 10 mM Hepes, 150 mM NaCl, 0.1% PEG 8000, pH 7.4) using the chromogenic substrate H-D-HHT-Ala-Arg-pNa. […] Percent inhibition was calculated by comparing the initial reaction velocity of samples without inhibitor to those with inhibitor. The initial reaction velocities were analyzed using Microsoft Excel.

By IC50 is commonly meant the point on the concentration scale where inhibition reaches its midpoint. On to `COC(=O)c1ccc(C(=O)N2CCC3(CC2)COc2ccc(CN)cc23)s1` [Cpd 267, 1-(5-methoxycarbonyl-thien-2-yl)carbonyl-5′-aminomethyl-spiro[piperidine-4,3′-(2H)-benzo[b]furan]], for which the IC50 was 340 nM.
In the case of `CC(C)(C)c1ccc(/C=C/C(=O)N2CCC3(CC2)COc2ccc(CN)cc23)cc1` [Cpd 268, (E)-1-(4-tert-butyl-phenylethenyl)carbonyl-5′-aminomethyl-spiro[piperidine-4,3′-(2H)-benzo[b]furan]] it was 2900 nM; in that of `NCc1ccc2c(c1)C1(CCN(C(=O)c3cccc4c3Cc3ccccc3-4)CC1)CO2` [Cpd 269, 1-fluoren-1-ylcarbonyl-5′-aminomethyl-spiro[piperidine-4,3′-(2H)-benzo[b]furan]], 1000 nM; in that of `NCc1ccc2c(c1)C1(CCN(C(=O)c3cccc4c3C(=O)c3ccccc3-4)CC1)CO2` [Cpd 270, 1-(9-oxo-fluoren-1-yl)carbonyl-5′-aminomethyl-spiro[piperidine-4,3′-(2H)-benzo[b]furan]], 6400 nM.
As for `CCc1ccc2c(Cl)c(C(=O)N3CCC4(CC3)COc3ccc(CN)cc34)sc2c1` [Cpd 271, 1-(3-chloro-6-ethyl-benzo[b]thien-2-yl)carbonyl-5′-aminomethyl-spiro[piperidine-4,3′-(2H)-benzo[b]furan]], the IC50 stood at 2800 nM.
Turning to `NCc1ccc2c(c1)C1(CCN(C(=O)/C=C/c3ccccc3O)CC1)CO2` [Cpd 272, (E)-1-(2-hydroxy-phenylethenyl)carbonyl-5′-aminomethyl-spiro[piperidine-4,3′-(2H)-benzo[b]furan]], half-maximal inhibition (IC50) required 190 nM.
In turn, `NCc1ccc2c(c1)C1(CCN(C(=O)c3cccc(C(N)=O)c3)CC1)CO2` [Cpd 273, 1-(3-aminocarbonyl-phenyl)carbonyl-5′-aminomethyl-spiro[piperidine-4,3′-(2H)-benzo[b]furan]] displayed an IC50 of 1200 nM. Against the preceding compound, the IC50 is about 6.3-fold higher.
`CC(C)(C)c1cccc(C(=O)N2CCC3(CC2)COc2ccc(CN)cc23)c1` [Cpd 274, 1-(3-tert-butyl-phenyl)carbonyl-5′-aminomethyl-spiro[piperidine-4,3′-(2H)-benzo[b]furan]] registered a half-inhibitory concentration (IC50) of 6400 nM.
For the compound `NCc1ccc2c(c1)C1(CCN(C(=O)c3sc(Cl)c(Cl)c3Cl)CC1)CO2` [Cpd 275, 1-(3,4,5-trichloro-thien-2-yl)carbonyl-5′-aminomethyl-spiro[piperidine-4,3′-(2H)-benzo[b]furan]], the concentration for half-maximal inhibition (IC50) was found to be 22 nM.
`C[SH]1C=C(C(F)(F)F)C2=C1NN(C(=O)N1CCC3(CC1)COc1ccc(CN)cc13)C2` (centres unmarked) [Cpd 276, 1-(4-trifluoromethyl-6-methyl-1H-thieno[2,3-c]pyrazol-2-yl)carbonyl-5′-aminomethyl-spiro[piperidine-4,3′-(2H)-benzo[b]furan]]: 150 nM corresponded to half-maximal inhibition (IC50).
In the case of `NCc1ccc2c(c1)C1(CCN(C(=O)c3nc(-c4cccs4)no3)CC1)CO2` [Cpd 277, 1-(3-thien-2-yl-[1,2,4]oxadiazol-5-yl)carbonyl-5′-aminomethyl-spiro[piperidine-4,3′-(2H)-benzo[b]furan]] it was 6 nM.
With `NCc1ccc2c(c1)C1(CCN(C(=O)c3cc(Br)c(Br)s3)CC1)CO2` [Cpd 278, 1-(4,5-dibromo-thien-2-yl)carbonyl-5′-aminomethyl-spiro[piperidine-4,3′-(2H)-benzo[b]furan]] the figure was 12 nM; with `NCc1ccc2c(c1)C1(CCN(C(=O)c3ccc(Oc4cc(C(F)(F)F)cc(C(F)(F)F)c4)cc3)CC1)CO2` [Cpd 279, 1-[4-(3,5-bis-trifluoromethyl-phenoxy)-phenyl]carbonyl-5′-aminomethyl-spiro[piperidine-4,3′-(2H)-benzo[b]furan]], 8000 nM; with `NCc1ccc2c(c1)C1(CCN(S(=O)(=O)c3ccc(Cl)c(Cl)c3)CC1)CO2` [Cpd 280, 1-(3,4-dichlorophenyl)sulfonyl-5′-aminomethyl-spiro[piperidine-4,3′-(2H)-benzo[b]furan]], 220 nM.
With `NCc1ccc2c(c1)C1(CCN(C(=O)/C=C/c3cccc(OCc4ccccc4)c3)CC1)CO2` [Cpd 281, (E)-1-(3-benzyloxy-phenylethenyl)carbonyl-5′-aminomethyl-spiro[piperidine-4,3′-(2H)-benzo[b]furan]], the IC50 amounted to 24 nM.
`CC(C)(C)c1ccc(C#Cc2ccc(C(=O)N3CCC4(CC3)COc3ccc(CN)cc34)o2)cc1` [Cpd 282, 1-[5-(4-tert-butyl-phenylethynyl)-furan-2-yl]carbonyl-5′-aminomethyl-spiro[piperidine-4,3′-(2H)-benzo[b]furan]]: half-maximal inhibition (IC50) was put at 700 nM.
On to `NCc1ccc2c(c1)C1(CCN(C(=O)c3cc4ccccc4n3S(=O)(=O)c3ccccc3)CC1)CO2` [Cpd 283, 1-(1-phenylsulfonyl-1H-indol-2-yl)carbonyl-5′-aminomethyl-spiro[piperidine-4,3′-(2H)-benzo[b]furan]], for which the IC50 amounted to 910 nM.
Compound `NCc1ccc2c(c1)C1(CCN(C(=O)c3cc(C(N)=O)cc(-c4nc(-c5cccs5)no4)c3)CC1)CO2` [Cpd 284, 1-[3-(3-thien-2-yl-[1,2,4]oxadiazol-5-yl)-5-aminocarbonyl-phenyl]carbonyl-5′-aminomethyl-spiro[piperidine-4,3′-(2H)-benzo[b]furan]] had a concentration for half-maximal inhibition (IC50) of 4.6 nM.
`NCc1ccc2c(c1)C1(CCN(C(=O)c3cc4ccccc4[nH]3)CC1)CO2` [Cpd 285, 1-1H-indol-2-ylcarbonyl-5′-aminomethyl-spiro[piperidine-4,3′-(2H)-benzo[b]furan]]: the IC50 is 360 nM.
Turning to `NCc1ccc2c(c1)C1(CCN(C(=O)C3=CCc4ccccc43)CC1)CO2` [Cpd 286, 1-3H-inden-1-ylcarbonyl-5′-aminomethyl-spiro[piperidine-4,3′-(2H)-benzo[b]furan]], the half-maximal inhibitory concentration (IC50) was found to be 920 nM.
`NCc1ccc2c(c1)C1(CCN(C(=O)C3CC(=O)c4ccccc43)CC1)CO2` (centres unmarked) [Cpd 287, 1-(3-oxo-indan-1-yl)carbonyl-5′-aminomethyl-spiro[piperidine-4,3′-(2H)-benzo[b]furan]] yielded a half-inhibitory concentration (IC50) of 4300 nM.
For the compound `NCc1ccc2c(c1)C1(CCN(C(=O)c3cc(-c4ccccc4)cs3)CC1)CO2` [Cpd 288, 1-(4-phenyl-thien-2-yl)carbonyl-5′-aminomethyl-spiro[piperidine-4,3′-(2H)-benzo[b]furan]], the 50% inhibitory concentration (IC50) stood at 280 nM.
With `NCc1ccc2c(c1)C1(CCN(C(=O)C3c4ccccc4-c4ccccc43)CC1)CO2` [Cpd 289, 1-fluoren-9-ylcarbonyl-5′-aminomethyl-spiro[piperidine-4,3′-(2H)-benzo[b]furan]] the figure was 1400 nM; with `NCc1ccc2c(c1)C1(CCN(C(=O)C(c3ccccc3)c3ccccc3)CC1)CO2` [Cpd 290, 1-(1-oxo-2,2-diphenyl-ethyl)-5′-aminomethyl-spiro[piperidine-4,3′-(2H)-benzo[b]furan]], 160 nM; with `COCCOc1cccc(/C=C/C(=O)N2CCC3(CC2)COc2ccc(CN)cc23)c1` [Cpd 291, (E)-1-[3-(2-methoxy-ethoxy)-phenylethenyl]carbonyl-5′-aminomethyl-spiro[piperidine-4,3′-(2H)-benzo[b]furan]], 400 nM.
As to `NCc1ccc2c(c1)C1(CCN(C(=O)C3c4ccccc4Oc4ccccc43)CC1)CO2` [Cpd 292, 1-9H-xanthen-9-ylcarbonyl-5′-aminomethyl-spiro[piperidine-4,3′-(2H)-benzo[b]furan]], the IC50 worked out at 6100 nM.
`NCc1ccc2c(c1)C1(CCN(C(=O)CC3c4ccccc4Oc4ccccc43)CC1)CO2` [Cpd 293, 1-9H-xanthen-9-ylmethylcarbonyl-5′-aminomethyl-spiro[piperidine-4,3′-(2H)-benzo[b]furan]]: the IC50 was 1200 nM.
Consider `NCc1ccc2c(c1)C1(CCN(C(=O)/C=C/c3cccc(OCCc4ccccc4)c3)CC1)CO2` [Cpd 294, (E)-1-(3-phenethoxy-phenylethenyl)carbonyl-5′-aminomethyl-spiro[piperidine-4,3′-(2H)-benzo[b]furan]], for which the half-inhibitory concentration (IC50) is 97 nM.
The compound `NCc1ccc2c(c1)C1(CCN(C(=O)c3cc(-c4ccccc4)c(C(F)(F)F)s3)CC1)CO2` [Cpd 295, 1-(4-phenyl-5-trifluoromethyl-thien-2-yl)carbonyl-5′-aminomethyl-spiro[piperidine-4,3′-(2H)-benzo[b]furan]] yielded a concentration for half-maximal inhibition (IC50) of 42 nM. Compared with the last compound, the IC50 is about 2.3-fold lower.
`NCc1ccc2c(c1)C1(CCN(C(=O)C#Cc3ccccc3)CC1)CO2` [Cpd 296, 1-phenylethynylcarbonyl-5′-aminomethyl-spiro[piperidine-4,3′-(2H)-benzo[b]furan]] returned an IC50 of 210 nM.
`C[N+](C)(C)Cc1ccc2c(c1)C1(CCN(C(=O)c3ccc(C#Cc4ccccc4)o3)CC1)CO2` [Cpd 297, 1-(5-phenylethynyl-furan-2-yl)carbonyl-spiro[piperidine-4,3′-(2H)-benzo[b]furan]-5′-[methyl-(trimethyl)ammonium]] had a concentration for half-maximal inhibition (IC50) of 9600 nM.
With `NCc1ccc2c(c1)C1(CCN(C(=O)c3sc4ccc5ccccc5c4c3Cl)CC1)CO2` [Cpd 298, 1-(1-chloro-naphtho[2,1-b]thien-2-yl)carbonyl-5′-aminomethyl-spiro[piperidine-4,3′-(2H)-benzo[b]furan]] the figure was 210 nM.
The compound `CSc1cc(-c2ccc(Cl)cc2)c(C(=O)N2CCC3(CC2)COc2ccc(CN)cc23)s1` [Cpd 299, 1-[3-(4-chloro-phenyl)-5-methylthio-thien-2-yl]carbonyl-5′-aminomethyl-spiro[piperidine-4,3′-(2H)-benzo[b]furan]] gave an IC50 of 17 nM.
`NCc1ccc2c(c1)C1(CCN(C(=O)/C=C/c3ccc(OCc4ccccc4)cc3)CC1)CO2` [Cpd 300, (E)-1-(4-benzyloxy-phenylethenyl)carbonyl-5′-aminomethyl-spiro[piperidine-4,3′-(2H)-benzo[b]furan]]: the concentration for half-maximal inhibition (IC50) is 1500 nM. This IC50 lies about 88-fold higher than the previous one.
Take `COCCCOc1cccc(/C=C/C(=O)N2CCC3(CC2)COc2ccc(CN)cc23)c1` [Cpd 301, (E)-1-[3-(3-methoxy-propoxy)-phenylethenyl]carbonyl-5′-aminomethyl-spiro[piperidine-4,3′-(2H)-benzo[b]furan]]: the IC50 came out at 1500 nM.
